This note sets out measurements from patent publication US20040023919A1, “Blood lipid ameliorant composition” (SANKYO COMPANY, LIMITED, priority 2000, published 2004).

Structures are written as SMILES.

Holding throughout (format): in vivo, Beagle dogs
The test system of data set [1] is total cholesterol in the blood. Put plainly: Blood total cholesterol levels in dogs after oral administration for 11 days (CEH-COD-POD method). The conditions noted are these: relative ratio against averaged pre-dosing level (100), oral once daily, mean of 5 animals. An excerpt: (§1) Atorvastatin was synthesized at Chemtech Labo.
(§2) Beagle dogs aged 5 months were purchased from Covance Research Products Inc. and used after 1 month of quarantine and acclimatisation breeding.
(§3) The required amounts of atorvastatin or each component of the combination drug calculated from the body weight of each dog were weighed and filled in a gelatin capsule (½ ounce) purchased from TORPAC Inc. Capsules filled with atorvastatin were stocked in a refrigerator and those filled with combination drugs stocked at room temperature until use.
(§4) Atorvastatin or combination drug capsules were forcibly orally administered to each of the test animals once daily between 9:00 and 12:30. Animals were fasted for 2 or 3 hr prior to administration of the capsules.
(§5) The administration period was 11 successive days.
(§6) Blood (10 mL) was collected from the superficial radial vein 2 or 1 weeks prior to administration and 4, 8, and 12 days after administration was started. Animals were fasted for approximately 18 hr prior to blood collection. Collected blood was placed in a test tube, left at room temperature for 0.5-1 hr, then centrifuged (3,000 rpm for 10 min). The obtained serum was used for assays of blood levels of total cholesterol, lipid peroxides and triglycerides according to CEH-COD-POD (Cholesterol ester hydrolase-Cholesteroloxidase-Peroxidase) methods, Yagi's methods and GK-GPO-POD (Glycerokinase-Glycerolphosphateoxidase-Peroxidase) methods respectively. (For assay method, see: Kanai's Manual of Clinical Laboratory Medicine; 31st Edition (September 1998), Kanehara & Co., Ltd.).
(§7) All these levels were determined using a fluorometer (Hitachi, Ltd., F3000), a full automatic analyzer (Monarch, Instrumentation Laboratory), and an automatic analyzer (7170, Hitachi, Ltd.).
(§8) All these values were converted to their relative ratios against their averaged pre-dosing levels (100) determined 2 and 1 weeks prior to drug administration. The averaged value in each group was obtained from 5 animals per group.

The subject of data set [2] is lipid peroxides in the blood. Description: Blood lipid peroxide levels in dogs after oral administration for 11 days (Yagi's method). The conditions noted are these: relative ratio against averaged pre-dosing level (100), oral once daily, atorvastatin 2 mg/kg, mean of 5 animals.
Text: as §1, §2, §3, §4, §5
as §6, with “respectively.” for “respectively. (For assay method, see: Kanai's Manual of Clinical Laboratory Medicine; 31st Edition (September 1998), Kanehara & Co., Ltd.).”
as §8

Another data set deals with Blood FFA. Put plainly: Blood FFA levels in dogs after oral administration (Table 8). The conditions noted are these: relative ratio against averaged pre-dosing level (100), oral once daily, atorvastatin 2 mg/kg, AA 500 mg/kg, mean of 5 animals.
Another data set concerns GOT. Put plainly: GOT levels in dogs after oral administration (Table 9). Conditions: relative ratio against averaged pre-dosing level (100), oral once daily, atorvastatin 2 mg/kg, pantethine 300 mg/kg, mean of 5 animals.
Text: Atorvastatin was synthesized at Chemtech Labo. Inc., and riboflavin butyrate, d-α-tocopherol acetate, ascorbic acid, pantethine and taurine were purchased from Mitsubishi-Tokyo Pharmaceutical Inc., Eisai Co., Ltd., NIPPON ROCHE K.K., Nacalai Tesque, Inc. and Dai-ich Pharmaceutical Co., Ltd., respectively.
as §2, §3, §4, §5
Blood (10 mL) was collected from the superficial radial vein 2 or 1 weeks prior to administration and 4, 8, and 12 days after administration was started. Animals were fasted for approximately 18 hr prior to blood collection. Collected blood was placed in a test tube, left at room temperature for 0.5-1 hr, then centrifuged (3,000 rpm for 10 min). […]
as §7
Total cholesterol levels and so forth in the blood collected from dogs treated with either atorvastatin alone or a combination drug consisting of atorvastatin plus one of riboflavin butyrate, d-α-tocopherol acetate, ascorbic acid, pantethine and taurine were determined. All these values were converted to their relative ratios against their averaged pre-dosing levels (100) determined 2 and 1 weeks prior to drug administration. […]

The test system of data set [3] is triglycerides in the blood. Put plainly: Blood triglyceride levels in dogs after oral administration for 11 days (GK-GPO-POD method). The conditions noted are these: relative ratio against averaged pre-dosing level (100), oral once daily, statin 2 mg/kg, taurine 1000 mg/kg, mean of 5 animals.
Text: as §1, §2, §3, §4, §5, §6, §7, §8

Setting [4] is: atorvastatin 2 mg/kg, RFVb 200 mg/kg.
The mark [5] stands for this setting: atorvastatin 2 mg/kg, Tocoph 300 mg/kg.
Where [6] appears, read: statin 2 mg/kg, taurine 1000 mg/kg.

Turning to `CC(C)c1c(C(=O)Nc2ccccc2)c(-c2ccccc2)c(-c2ccc(F)cc2)n1CC[C@@H](O)C[C@@H](O)CC(=O)O` (relative stereo) [Atorvastatin alone, [R-(R*,R*)]-2-(4-fluorophenyl)-β,δ-dihydroxy-5-(1-methylethyl)-3-phenyl-4-[phenylamino]carbonyl]-1H-pyrrole-1-heptanoic acid], in data set [1] (setting [4]), the “Blood Total Cholesterol Levels after administration, 4 days” value (from here on “Blood Total Cholesterol Levels … 4 days”) was determined as 102.9; the “Blood Total Cholesterol Levels after administration, 8 days” value (from here on “Blood Total Cholesterol Levels … 8 days”) is 95.5; the “Blood Total Cholesterol Levels after administration, 12 days” value (from here on “Blood Total Cholesterol Levels … 12 days”) was determined as 90.9. Besides, in data set [1] (setting [5]), the “Blood Total Cholesterol Levels … 4 days” value was found to be 102.9; the “Blood Total Cholesterol Levels … 8 days” value amounted to 95.5; the “Blood Total Cholesterol Levels … 12 days” value amounted to 90.9. For the same compound, in data set [2] (Tocoph 300 mg/kg), the “Blood Lipid Peroxide Levels after administration, 4 days” value (shortened to “Blood Lipid Peroxide Levels … 4 days”) is recorded as 104.5; the “Blood Lipid Peroxide Levels after administration, 8 days” value (from here on “Blood Lipid Peroxide Levels … 8 days”) came out at 84.4; the “Blood Lipid Peroxide Levels after administration, 12 days” value (“Blood Lipid Peroxide Levels … 12 days” for short) came to 80.9. Also, in data set [2] (pantethine 300 mg/kg), the “Blood Lipid Peroxide Levels … 4 days” value came to 104.5; the “Blood Lipid Peroxide Levels … 8 days” value is 84.4; the “Blood Lipid Peroxide Levels … 12 days” value came out at 80.9. Moreover, in the data set on Blood FFA, the “Blood FFA Levels after administration, 4 days” value is 102.9; the “Blood FFA Levels after administration, 8 days” value came to 95.5; the “Blood FFA Levels after administration, 12 days” value is 90.9. The “GOT Levels after administration, 4 days” value with GOT (4 days) is 102.9. For the same compound, in the data set with GOT (8 days), the “GOT Levels after administration, 8 days” value was 95.5. Also, in the data set on GOT (12 days), the “GOT Levels after administration, 12 days” value was 90.9.
On to `O=C1O[C@H]([C@@H](O)CO)C(O)=C1O` [AA alone, ascorbic acid], for which, in the data set with Blood FFA, the “Blood FFA Levels after administration, 4 days” value amounted to 95.9; the “Blood FFA Levels after administration, 8 days” value turned out to be 96.7; the “Blood FFA Levels after administration, 12 days” value is on record as 98.9.
`CCCC(=O)OC[C@@H](OC(=O)CCC)[C@@H](OC(=O)CCC)[C@H](Cn1c2nc(=O)[nH]c(=O)c-2nc2cc(C)c(C)cc21)OC(=O)CCC` [RFVb alone, riboflavin butyrate]: in data set [1] (setting [4]), the “Blood Total Cholesterol Levels … 4 days” value worked out at 99.5; the “Blood Total Cholesterol Levels … 8 days” value stood at 99.0; the “Blood Total Cholesterol Levels … 12 days” value worked out at 97.2.
In the case of `CCC(C)(C)C(=O)O[C@H]1C[C@@H](C)C=C2C=C[C@H](C)[C@H](CC[C@@H]3C[C@@H](O)CC(=O)O3)[C@H]21` [Simvastatin alone], in data set [1] (setting [6]), the “Blood Total Cholesterol Levels … 4 days” value turned out to be 102.9; the “Blood Total Cholesterol Levels … 8 days” value is recorded as 95.5; the “Blood Total Cholesterol Levels … 12 days” value worked out at 90.9. Besides, the “Blood Triglyceride Levels after administration, 4 days” value in data set [3] (4 days) amounted to 87.1. Further, the “Blood Triglyceride Levels after administration, 8 days” value in data set [3] (8 days) came out at 86.7. For the same compound, the “Blood Triglyceride Levels after administration, 12 days” value in data set [3] (12 days) was 74.1.
Turning to `CC(=O)Oc1c(C)c(C)c2c(c1C)CC[C@@](C)(CCC[C@H](C)CCC[C@H](C)CCCC(C)C)O2` [Tocoph alone, d-α-tocopherol acetate], in data set [1] (setting [5]), the “Blood Total Cholesterol Levels … 4 days” value was found to be 97.7; the “Blood Total Cholesterol Levels … 8 days” value is on record as 95.1; the “Blood Total Cholesterol Levels … 12 days” value is recorded as 97.5. Also, in data set [2] (Tocoph 300 mg/kg), the “Blood Lipid Peroxide Levels … 4 days” value came to 106.3; the “Blood Lipid Peroxide Levels … 8 days” value was 119.0; the “Blood Lipid Peroxide Levels … 12 days” value is 75.9.
